From paper PMC8038054, “Bis-3-Chloropiperidines Targeting TAR RNA as A Novel Strategy to Impair the HIV-1 Nucleocapsid Protein” (Molecules, 2021)

Legend:
TAR RNA [1] = test: ESI-MS of reaction mixtures of B-CePs with TAR; format: binding, HIV-1
Description: To elucidate the molecular details of the products observed by PAGE, we further characterized the outcome of the reaction with TAR by electrospray ionization-mass spectrometry (ESI-MS). A preliminary determination was accomplished on the individual TAR construct, and a representative ESI-MS spectrum is provided in Figure 4A. Only the region containing the 5-charge state is shown for the sake of clarity. The detected species labelled [TAR-5H]^5− in Figure 4A afforded an experimental mass of 9286.25 Da, which matches the monoisotopic value of 9286.24 Da calculated from the RNA sequence very closely (Table 1). Successively, we performed the experiment by reacting compound 1 with TAR at 1 μM. After 2 h of incubation, at 37 °C, the reaction mixture was submitted to ethanol precipitation to achieve quenching and desalting, which enabled a direct infusion ESI-MS analysis. […] In the presence of nucleic acids, aziridinium preferentially attacks N7 of guanines on the substrate, forming different types of adduct (Scheme S1 in Supplementary Materials).^22 Analyzing a new species in Figure 4B, their masses matched those of products generated by either mono- or bis-alkylation reactions. The species TAR + 1B, displaying a mass of 9548.49 u, corresponded to bi-functional adducts formed by the reaction of both 3-chloropiperidine reactive moieties with the RNA strand (labelled [TAR + 1B − 5H]^5− in the inset in Figure 4B). Differently, TAR + 1M species with a mass of 9566.49 u was assigned to mono-functional adducts, in which only one of the 3-chloropiperidines reacted with the substrate, whereas the other was hydrolyzed to 3-hydroxyl by the aqueous environment (labelled [TAR + 1M − 5H]^5− in the inset in Figure 4B). Table 1 summarizes the experimental and calculated masses of the new products and provides the assignment of the various species detected in Figure 4B.
Figure 4 Representative electrospray-ionization mass spectrometry (ESI-MS) spectra of reaction mixtures obtained by incubating TAR (1 μM) with increasing B-CeP 1 (A:0, B:1, C:10, D:50 μM) at 37 °C for 2 h in a BPE buffer (pH 7.4). The spectra B–D show the concentration-dependent reactions induced by B-CeP 1 on TAR. Greater stoichiometries corresponding to combinations of mono- and bi-functional adducts, were detected and indicated in orange in the figure. The spectra were recorded in 150 mM ammonium acetate. Lower intensity signals near free/adducted species consist of typical sodium and ammonium adducts. Only region containing the 5-charge state is shown for the sake of clarity.
The results shown in Figure 4C,D show the reaction products obtained, further increasing the concentration of compound 1, with 1 μM TAR solution incubated with 10 and 50 μM of B-CeP 1, respectively. […]

[2] = system: recombinant full-length HIV-1 NC; test: High-throughput screening (HTS): inhibition of NC-mediated melting of TAR RNA hairpin; format: biochemical; settings: 0.1 μM TAR, 0.8 μM NC, compound pre-incubated 37 °C 2 h; mean of three experiments; read-out: IC50, inhibition of NC-mediated melting of individual TAR RNA hairpin
Procedure: This assay is based on the doubly labeled TAR construct used above in the FQA experiments and is extensively employed to screen for inhibitors of NC melting activity. After preliminary controls to ensure the absence of direct quenching activity by the compounds under investigation, their ability to inhibit TAR RNA melting was evaluated in the presence of recombinant full-length HIV-1 NC. By adding increasing amounts of B-CePs, we determined the concentration of each compound that induced a 50% reduction in the destabilizing activity of NC (i.e., IC50) on TAR.
High-throughput screening (HTS) was performed to identify the inhibitors of NC chaperone activity on TAR. We used a VictorIII (PerkinElmer) microplate reader with 485 and 535 nm as the excitation and emission wavelengths. The TAR RNA hairpin was formed by snap cooling in the 1× BPE buffer, as described above. A 1 μM aliquot of TAR, which bore 5′-FAM and 3′-DAB modifications, was folded in 1× BPE buffer. The samples were then diluted to 0.1 μM in 1× BPE buffer. Increasing concentrations of compound (0, 0.1, 0.5, 1, 5, 10, 50, 100 μM final) were added to each sample and incubated at 37 °C for 2 h before introducing NC to a final concentration of 0.8 μM (for a 1:8 oligo to NC molar ratio). The plate was immediately read at room temperature three times with 1 min intervals, unless differently specified. The experimental data were fitted as reported earlier to enable calculation of the respective IC50 value.16 Each experiment was performed in triplicate to calculate an average and standard deviation.

[3] = cited from earlier work
TAR RNA [4] = test: Electrophoretic Mobility Shift Assay (EMSA), non-denaturing PAGE; format: binding, HIV-1; settings: 1 μM folded TAR, 0-50 μM compound, 2 h 37 °C, BPE buffer pH 7.4
Procedure: To further evaluate the interaction of B-CePs to TAR RNA, Electrophoretic Mobility Shift Assay (EMSA) was used as a simple tool to visualize the putative interaction of compound 1 with TAR. The RNA was folded in its hairpin secondary structure, incubated for 2 h at 37 °C with increasing concentrations of compound 1 (0, 1, 5, 10, 25, 35, 50 μM), and the reaction products were resolved by polyacrylamide gel electrophoresis (PAGE). Figure 3 provides the results obtained in non-denaturing PAGE.
Figure 3 Non-denaturing polyacrylamide gel electrophoresis (PAGE) (PAA 12%) in TBE 1× showing the concentration-dependence of the interaction of B-CeP 1 with TAR. Folded TAR hairpin 1 μM was incubated with increasing concentrations of compound (0, 1, 5, 10, 25, 35, 50 μM) for 2 h at 37 °C with a BPE buffer (pH 7.4).
Electrophoretic Mobility Shift Assay (EMSA) was used to assess the ability of compound 1 to directly interact to TAR RNA construct. Prior to incubation with compound, TAR RNA was heated to 95 °C for 5 min and then ice-cooled in order to assume the proper hairpin structure. TAR RNA construct (1 μM) was then incubated with increasing concentrations (from 0 to 50 μM) of B-CeP 1, at 37 °C for 2 h in 1× BPE buffer (pH 7.4). […] Fluorescence in gel system was detected on a Geliance 600 Imaging System (PerkinElmer, Waltham, MA, USA).

TAR RNA [5] = test: Fluorescence quenching assay (FQA): thermal melting of TAR RNA hairpin; format: binding, HIV-1; settings: 10 μM compound, 1 μM TAR, 37 °C 2 h, BPE buffer
Description: A first insight into the putative interaction of B-CePs with RNA was offered by the investigation of the ability of the selected compounds to stabilize the TAR hairpin structure. We employed fluorescence quenching assays (FQA) to measure the ability of each B-CeP to modify the thermal denaturation profile of the TAR construct shown in Figure 1A, which was functionalized at both termini with a fluorophore-quencher couple. In this way, thermal melting of the structure can be assessed from the intensity of the detected fluorescence signal. The melting profile of TAR in the presence of increasing concentrations of each compound allowed an evaluation of the shift in melting temperature (ΔTm) from the reference value, which was determined in the absence of compound. Sample solutions contained 1 μM of RNA substrate and 10, 50 or 100 μM of each B-CePs compound. Figure 2 summarizes the values of ΔTm obtained by adding increasing concentrations of B-CePs 1–5. […]
The ability of the tested compounds to stabilize the TAR RNA structure was measured by the increase in the melting temperature of the oligoribonucleotide in the presence of different concentrations of each compound. […] Fluorescence emission of FAM was read by using a Light Cycler 480 II (Roche, Basel, CH) with emission at λ = 510 nm and correlated to the melting temperature of the oligoribonucleotide. […]

Row | SMILES | IC50 [2] [µM] | Tm increase of TAR RNA (stabilization effect) (TAR RNA [5]) | further results
1 | CC1(C)CC(Cl)CN(CCCN2CC(Cl)CC(C)(C)C2)C1 (centres unmarked) [Compound 1] | 4.75 ± 0.15 |  | Binding stoichiometries on TAR detected by ESI-MS (TAR RNA [1]; 1 μM TAR with 10 and 50 μM compound): up to five equivalents; Products of the reaction with TAR detected by ESI-MS (TAR RNA [1]; 1 μM TAR, 37 °C 2 h, BPE buffer): covalent adducts; Fragmentation of the oligoribonucleotide chain of TAR RNA (TAR RNA [1]; ESI spectrometry and gel electrophoresis): not detected; Cytotoxicity ([3]; ref [22],[25]): low cytotoxicity; Concentration at which binding events (band shift) reach a plateau (TAR RNA [4]): 25 µM
2 | CC1(C)CC(Cl)CN(CCCCCN2CC(Cl)CC(C)(C)C2)C1 (centres unmarked) [Compound 2] | 2.75 ± 0.7 |  | Relative reactivity towards the TAR construct (comparison of ESI-MS spectra) (TAR RNA [1]; same B-CeP/TAR molar ratio (10 μM compound, 1 μM TAR)): most reactive; Effect of the longer linker on cell permeability and cytotoxicity ([3]; ref [26]): increases cell permeability and cytotoxicity
3 | CC1(C)CC(Cl)CN(CCCCCCN2CC(Cl)CC(C)(C)C2)C1 (centres unmarked) [Compound 3] | 3.55 ± 0.37 |  | 
4 | COC(=O)[C@H](CCCCN1CC(Cl)CC(C)(C)C1)N1CC(Cl)CC(C)(C)C1 (some centres unmarked) [Compound 4] | 5.09 ± 0.05 | much weaker stabilization effect | 
5 | COC(=O)[C@@H](CCCCN1CC(Cl)CC(C)(C)C1)N1CC(Cl)CC(C)(C)C1 (some centres unmarked) [Compound 5] | 4.78 ± 0.71 | much weaker stabilization effect | 
